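How tested: cells in 96-well plates exposed to compound for 48 hours at five concentrations. The concentration for 50% growth inhibition is given as GI50.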 Active and inactive are the calls of the source. No stated cut-off is given here; in the data, active = GI50 up to about 1.1 µM and inactive = higher.
Key:
Experiment in all cases: NCI tumour cell line growth inhibition, 48 h
SK-MEL-5 = test system: SK-MEL-5
DU-145 = test system: DU-145
HOP-92 = test system: HOP-92
Hs-578T = test system: Hs-578T
OVCAR-3 = test system: OVCAR-3
CAKI-1 = test system: CAKI-1
HCT-15 = test system: HCT-15
BT-549 = test system: BT-549
SK-MEL-28 = test system: SK-MEL-28
SN12C = test system: SN12C
OVCAR-8 = test system: OVCAR-8
MDA-MB-231 = test system: MDA-MB-231
IGROV-1 = test system: IGROV-1
A498 = test system: A498
KM12 = test system: KM12
786-0 = test system: 786-0
T47D = test system: T47D
CCRF-CEM = test system: CCRF-CEM
ACHN = test system: ACHN
Malme-3M = test system: Malme-3M
LOX IMVI = test system: LOX IMVI
SNB-19 = test system: SNB-19
NCI-H23 = test system: NCI-H23
RPMI-8226 = test system: RPMI-8226
UO-31 = test system: UO-31
SF-268 = test system: SF-268
K562 = test system: K562
MOLT-4 = test system: MOLT-4
NCI-H522 = test system: NCI-H522
OVCAR-5 = test system: OVCAR-5
MCF7 = test system: MCF7
OVCAR-4 = test system: OVCAR-4
HT-29 = test system: HT-29
UACC-62 = test system: UACC-62
SW-620 = test system: SW-620
EKVX = test system: EKVX
SK-MEL-2 = test system: SK-MEL-2
NCI/ADR-RES = test system: NCI/ADR-RES
NCI-H460 = test system: NCI-H460
HL-60 = test system: HL-60
TK-10 = test system: TK-10
PC-3 = test system: PC-3
M14 = test system: M14
MDA-MB-435 = test system: MDA-MB-435
SNB-75 = test system: SNB-75
UACC-257 = test system: UACC-257
NCI-H226 = test system: NCI-H226
SF-539 = test system: SF-539
SF-295 = test system: SF-295
U-251 = test system: U-251
SK-OV-3 = test system: SK-OV-3
HCC 2998 = test system: HCC 2998
A549 = test system: A549
HCT-116 = test system: HCT-116
MDA-N = test system: MDA-N
COLO 205 = test system: COLO 205

Measured: GI50

O=C1C(OC(=O)c2ccccc2)=C(c2ccc(O)cc2)C(=O)C(OC(=O)c2ccccc2)=C1c1ccc(O)cc1
inactive: SK-MEL-5 > 100 µM | DU-145 > 100 µM | HOP-92 > 100 µM | Hs-578T > 100 µM | OVCAR-3 38.1 µM | CAKI-1 > 100 µM | BT-549 > 100 µM | SK-MEL-28 > 100 µM | SN12C > 100 µM | OVCAR-8 > 100 µM | MDA-MB-231 > 100 µM | IGROV-1 > 100 µM | A498 > 100 µM | KM12 60.5 µM | 786-0 > 100 µM | T47D > 100 µM | CCRF-CEM 42.9 µM | ACHN > 100 µM | Malme-3M > 100 µM | LOX IMVI 76.4 µM | SNB-19 46 µM | NCI-H23 > 100 µM | RPMI-8226 > 100 µM | UO-31 > 100 µM | SF-268 > 100 µM | K562 > 100 µM | MOLT-4 36 µM | NCI-H522 > 100 µM | OVCAR-5 > 100 µM | MCF7 > 100 µM | OVCAR-4 51.9 µM | HT-29 > 100 µM | UACC-62 44.7 µM | SW-620 > 100 µM | EKVX > 100 µM | SK-MEL-2 32 µM | NCI/ADR-RES > 100 µM | NCI-H460 74.1 µM | HL-60 > 100 µM | TK-10 > 100 µM | PC-3 > 100 µM | M14 > 100 µM | MDA-MB-435 > 100 µM | SNB-75 78.5 µM | UACC-257 > 100 µM | NCI-H226 > 100 µM | SF-539 > 100 µM | SF-295 61 µM | U-251 40.5 µM | SK-OV-3 56.2 µM | HCC 2998 40.3 µM | A549 > 100 µM | HCT-116 > 100 µM | MDA-N > 100 µM | COLO 205 > 100 µM
> 100 µM: HCT-15

Source: ChEMBL document CHEMBL1201862, “PubChem BioAssay data set” (2004)
